The results in this text go back to ChEMBL document CHEMBL1122749, “Synthesis and biological activity of 5-fluoro-2',3'-dideoxy-3'-fluorouridine and its 5'-phosphate” (J Med Chem, 1984).

Data set [1] deals with L1210. As to the kind of experiment: In vitro concentration required for 50% inhibition (IC50) of growth of L1210 mouse leukemia cells in culture. The class given is functional, cell-based.
Data set [2] concerns the target Thymidylate synthase (Lactobacillus casei). As to the kind of experiment: In vitro competitive inhibition of dTMP synthetase with respect to substrate dUMP.
Data set [3] in a line: Apparent rate constant Kon for inactivation of dTMP synthase.
Data set [4] can be described thus: Apparent rate constant Koff for inactivation of dTMP synthase.
A further data set concerns the target T1, Thymidine phosphorylase (Mus musculus, UniProt Q99N42).
T1 sequence (Q99N42 whole entry): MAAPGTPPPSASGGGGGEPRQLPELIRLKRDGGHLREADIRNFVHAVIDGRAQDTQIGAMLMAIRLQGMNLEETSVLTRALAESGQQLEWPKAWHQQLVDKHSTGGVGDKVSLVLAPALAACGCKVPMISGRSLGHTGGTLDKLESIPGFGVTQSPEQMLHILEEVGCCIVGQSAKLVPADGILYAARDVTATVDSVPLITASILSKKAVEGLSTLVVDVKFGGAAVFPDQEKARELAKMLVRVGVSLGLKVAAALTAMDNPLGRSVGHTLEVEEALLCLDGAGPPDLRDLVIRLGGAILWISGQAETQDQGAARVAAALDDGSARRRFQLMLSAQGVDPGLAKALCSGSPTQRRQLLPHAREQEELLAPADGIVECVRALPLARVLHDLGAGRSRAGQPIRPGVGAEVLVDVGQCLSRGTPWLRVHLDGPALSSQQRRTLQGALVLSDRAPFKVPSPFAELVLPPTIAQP
The experiment in a line: In vitro non-competitive inhibition of cleavage of Thymidine (dThd) phosphorylase isolated from Lewis lung carcinoma. In kind it is tissue-based.

The test system of data set [5] is L1210. As to the kind of experiment: In vitro concentration required for 50% inhibition (IC50) of growth of L1210 mouse leukemia cells in culture. In kind it is functional, cell-based.

`O=c1[nH]c(=O)n([C@H]2C[C@H](O)[C@@H](CO)O2)cc1F` [FLOXURIDINE]: in the data set on L1210 [1], inhibition was half-maximal at 0.0005 µM (IC50).
The compound `O=c1[nH]c(=O)n(C2CC(F)C(COP(=O)(O)O)O2)cc1F` (stereo unspecified) came in with a Ki in data set [2] of 130 µM. The Kon in data set [3] amounted to 0.029 s⁻¹. In addition, in data set [4], the K off turned out to be 0.000233 s⁻¹.
For the compound `O=c1[nH]c(=O)n([C@H]2C[C@H](F)[C@@H](CO)O2)cc1F`, the inhibition constant (Ki) at Thymidine phosphorylase came out at 1700 µM. The compound also registered a half-inhibitory concentration (IC50) in the data set with L1210 [5] of 3.4 µM.
